Assay results: PubChem BioAssay (NCI)
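Test compounds were applied to cells in 96-well plates for 48 hours at 5 doses. Abbreviation: GI50, concentration required for 50% inhibition of growth. TGI: concentration producing complete growth inhibition.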

Assays:
Test in all cases: inhibition of tumour cell growth, NCI panel, 48 h
[1] = test system: HCC-2998 colon
[2] = test system: SF-295 CNS
[3] = test system: OVCAR-4 ovarian
[4] = test system: SK-MEL-2 melanoma
[5] = test system: HL-60(TB) leukemia
[6] = test system: K-562 leukemia
[7] = test system: HCT-15 colon
[8] = test system: OVCAR-5 ovarian
[9] = test system: UO-31 renal
[10] = test system: CCRF-CEM leukemia
[11] = test system: UACC-62 melanoma
[12] = test system: M14 melanoma
[13] = test system: SK-MEL-28 melanoma
[14] = test system: SNB-75 CNS
[15] = test system: NCI-H23 lung
[16] = test system: TK-10 renal
[17] = test system: HOP-92 NSCLC
[18] = test system: T-47D breast
[19] = test system: U251 CNS
[20] = test system: A549 NSCLC
[21] = test system: CAKI-1 renal
[22] = test system: OVCAR-8 ovarian
[23] = test system: SF-268 CNS
[24] = test system: HT29 colon
[25] = test system: UACC-257 melanoma
[26] = test system: HOP-62 NSCLC
[27] = test system: KM12 colon

O=C(/C=C/c1cccc(OCc2ccccc2)c1)c1nc2ccccc2[nH]1 gave a GI50 [1] of 7.19 µM, a TGI [1] of 41.3 µM and a GI50 [2] of 15.6 µM. The TGI [2] was 37.9 µM, the GI50 [3] was 23.9 µM and the TGI [3] was > 100 µM. The GI50 [4] was 22.5 µM, the TGI [4] was 64.8 µM and the GI50 [5] was 4.39 µM. The TGI [5] was 25 µM, the GI50 [6] was 4.14 µM and the TGI [6] was > 100 µM. For the same compound, the GI50 [7] was 3.06 µM, the TGI [7] was > 100 µM and the GI50 [8] was 25.2 µM. For the same compound, the TGI [8] was > 100 µM, the GI50 [9] was 8.96 µM and the TGI [9] was > 100 µM. The GI50 [10] was 8.99 µM, the TGI [10] was > 100 µM and the GI50 [11] was 15.6 µM. For the same compound, the TGI [11] was > 100 µM, the GI50 [12] was 45.1 µM and the TGI [12] was > 100 µM. The GI50 [13] was 25.2 µM, the TGI [13] was > 100 µM and the GI50 [14] was 14.4 µM. The TGI [14] was 48.7 µM, the GI50 [15] was 18.3 µM and the TGI [15] was > 100 µM. For the same compound, the GI50 [16] was 28.6 µM, the TGI [16] was > 100 µM and the GI50 [17] was 6.51 µM. For the same compound, the TGI [17] was 37.2 µM, the GI50 [18] was 6.9 µM and the TGI [18] was > 100 µM. The GI50 [19] was 3.03 µM, the TGI [19] was 10.2 µM and the GI50 [20] was 49.9 µM. For the same compound, the TGI [20] was > 100 µM, the GI50 [21] was 14 µM and the TGI [21] was > 100 µM. It also gave a GI50 [22] of 17 µM, a TGI [22] of 72.6 µM and a GI50 [23] of 26.2 µM. The TGI [23] was > 100 µM, the GI50 [24] was 3.98 µM and the TGI [24] was > 100 µM. For the same compound, the GI50 [25] was > 100 µM, the TGI [25] was > 100 µM and the GI50 [26] was 17.8 µM. The TGI [26] was 43.2 µM, the GI50 [27] was 3.56 µM and the TGI [27] was > 100 µM.
